What all share (assay type): biochemical
For assay [1], the target named is T1, Phosphodiesterase PDE1A (Homo sapiens, UniProt P54750).
T1 construct: host or cells: insect Sf9 cells
Description: Phosphodiesterase PDE1A enzyme assay. The settings on record: N=2, Example 3. An excerpt: (§1) Reference standards are run as an integral part of each assay to ensure the validity of the results obtained. Reference Compounds: • Phosphodiesterase PDE10A2 Papaverine • Phosphodiesterase PDE11A4 Dipyridamole • Phosphodiesterase PDE1A MMPX • Phosphodiesterase PDE2A EHNA • Phosphodiesterase PDE3A Cilostamide • Phosphodiesterase PDE4A1A Rolipram • Phosphodiesterase PDE4B1 Rolipram • Phosphodiesterase PDE5A Zaprinast • Phosphodiesterase PDE6 Zaprinast • Phosphodiesterase PDE7A IBMX • Phosphodiesterase PDE7B IBMX • Phosphodiesterase PDE8A1 Dipyridamole • Phosphodiesterase PDE9A2 Zaprinast
(§2) Phosphodiesterase PDE1A; Phosphodiesterase PDE5A; and Phosphodiesterase PDE9A2: • Source: Human recombinant insect Sf9 cells • Substrate: 0.10 μM […] • Vehicle: 1.00% DMSO • Significance Crit.: ≥50% of max stimulation or inhibition • Incubation Buffer: 10 mM Tris-HCl, pH 7.2, 10 mM MgCl2, 0.05% NaN3, 0.1% phosphate-free BSA • Quantitation Method: Quantitation of Fluorescein-GMP-IMAP • Pre-Incub. Time/Temp: 15 minutes @25° C. • Incubation Time/Temp: 30 minutes @25° C.
(§3) IC50 values are determined by a non-linear, least squares regression analysis using MathIQ™ (ID Business Solutions Ltd., UK). […] Where presented, the Hill coefficient (nH), defining the slope of the competitive binding curve, is calculated using MathIQ™. […]

In assay [2] the target is T2, Phosphodiesterase PDE4A1A (Homo sapiens, UniProt P27815).
T2 construct: host or cells: insect Sf9 cells
T2 sequence (P27815 1-647 isoform P27815-4): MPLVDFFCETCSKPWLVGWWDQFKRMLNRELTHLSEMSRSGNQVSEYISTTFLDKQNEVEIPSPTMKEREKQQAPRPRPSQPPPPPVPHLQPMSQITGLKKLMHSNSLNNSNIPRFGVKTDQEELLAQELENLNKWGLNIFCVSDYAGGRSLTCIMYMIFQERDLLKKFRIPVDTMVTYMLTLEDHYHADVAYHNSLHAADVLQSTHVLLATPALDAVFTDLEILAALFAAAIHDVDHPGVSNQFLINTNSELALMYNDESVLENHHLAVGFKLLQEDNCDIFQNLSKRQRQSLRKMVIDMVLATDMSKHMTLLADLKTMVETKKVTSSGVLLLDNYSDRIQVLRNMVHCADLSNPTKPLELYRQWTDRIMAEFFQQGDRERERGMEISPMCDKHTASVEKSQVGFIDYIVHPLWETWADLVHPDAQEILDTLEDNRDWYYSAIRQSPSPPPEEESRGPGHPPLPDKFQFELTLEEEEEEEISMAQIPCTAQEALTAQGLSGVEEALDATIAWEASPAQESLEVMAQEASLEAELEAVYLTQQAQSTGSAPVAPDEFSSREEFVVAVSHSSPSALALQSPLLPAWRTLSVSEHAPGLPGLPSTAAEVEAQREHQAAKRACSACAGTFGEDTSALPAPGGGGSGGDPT
In words: Phosphodiesterase PDE4A1A enzyme assay.
Text: as §1
(§4) PDE4 assays are performed using methods adapted from the literature. See Richter W, et al. (2001) Identification of inhibitor binding sites of the cAMP-specific phosphodiesterase 4. Cell Signal. 13(4): 287-297; Wang H, et al. (2005) Multiple elements jointly determine inhibitor selectivity of cyclic nucleotide phosphodiesterases 4 and 7. J Biol Chem. 280(35): 30949-30955.
as §2, with “PDE4A1A;” for “PDE1A;”, “PDE4B1; Phosphodiesterase PDE10A2; Phosphodiesterase PDE11A4; Phosphodiesterase PDE2A; Phosphodiesterase PDE3A; Phosphodiesterase PDE7A; Phosphodiesterase PDE7B;” for “PDE5A;”, “PDE8A1:” for “PDE9A2:”, “Fluorescein-AMP-IMAP” for “Fluorescein-GMP-IMAP”
(§5) IC50 values are determined by a non-linear, least squares regression analysis using MathIQ™ (ID Business Solutions Ltd., UK). Where inhibition constants (Ki) are presented, the Ki values are calculated using the equation of Cheng and Prusoff (Cheng, Y., Prusoff, W. H., Biochem. Pharmacol. 22:3099-3108, 1973) using the observed IC50 of the tested compound, the concentration of radioligand employed in the assay, and the historical values for the KD of the ligand. Where presented, the Hill coefficient (nH), defining the slope of the competitive binding curve, is calculated using MathIQ™. […] Where IC50, Ki, and/or nH data are presented without Standard Error of the Mean (SEM), data are insufficient to be quantitative, and the values presented (Ki, IC50, nH) are interpreted with caution.
(§6) Reference standards are run as an integral part of each assay to ensure the validity of the results obtained. Rolipram is used for the PDE4 assays.
(§7) Phosphodiesterase PDE4A1A: • Source: Human recombinant insect Sf9 cells • Substrate: 0.10 μM FAM-cAMP • Vehicle: 1.00% DMSO • Significance Crit.: ≥50% of max stimulation or inhibition • Incubation Buffer: 10 mM Tris-HCl, pH 7.2, 10 mM MgCl2, 0.05% NaN3, 0.1% phosphate-free BSA • Quantitation Method: Quantitation of Fluorescein-AMP-IMAP • Pre-Incub. Time/Temp: 15 minutes @25° C. • Incubation Time/Temp: 30 minutes @25° C.
as §5, with “W.H.,” for “W. H.,”

For assay [3], the target named is T3, Phosphodiesterase PDE4B1 (Homo sapiens, UniProt Q07343).
T3 construct: host or cells: insect Sf9 cells
T3 sequence (Q07343 whole entry): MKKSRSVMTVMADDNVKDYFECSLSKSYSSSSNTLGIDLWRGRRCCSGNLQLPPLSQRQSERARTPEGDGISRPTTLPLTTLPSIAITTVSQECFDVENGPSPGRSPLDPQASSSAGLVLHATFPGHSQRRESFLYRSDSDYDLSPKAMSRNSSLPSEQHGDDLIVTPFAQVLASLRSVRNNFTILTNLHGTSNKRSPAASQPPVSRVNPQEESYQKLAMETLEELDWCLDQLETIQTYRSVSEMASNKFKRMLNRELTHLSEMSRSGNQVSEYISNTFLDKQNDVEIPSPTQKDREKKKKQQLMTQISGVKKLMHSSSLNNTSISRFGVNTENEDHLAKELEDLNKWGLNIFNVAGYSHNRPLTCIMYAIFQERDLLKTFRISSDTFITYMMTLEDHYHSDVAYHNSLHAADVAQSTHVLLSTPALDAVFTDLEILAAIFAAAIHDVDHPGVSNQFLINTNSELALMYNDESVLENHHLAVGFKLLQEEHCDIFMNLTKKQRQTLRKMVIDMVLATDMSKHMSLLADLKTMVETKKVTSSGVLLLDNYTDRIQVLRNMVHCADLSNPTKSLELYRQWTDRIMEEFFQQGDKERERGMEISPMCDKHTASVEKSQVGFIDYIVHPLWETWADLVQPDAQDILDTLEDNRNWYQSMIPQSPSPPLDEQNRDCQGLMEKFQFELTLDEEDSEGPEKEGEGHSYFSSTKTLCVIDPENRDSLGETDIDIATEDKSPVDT
Description: Phosphodiesterase PDE4B1 enzyme assay.
Text: as §1, §4
as §7, with “PDE4A1A; Phosphodiesterase PDE4B1; Phosphodiesterase PDE10A2; Phosphodiesterase PDE11A4; Phosphodiesterase PDE2A; Phosphodiesterase PDE3A; Phosphodiesterase PDE7A; Phosphodiesterase PDE7B; and Phosphodiesterase PDE8A1:” for “PDE4A1A:”
as §5, §6
Phosphodiesterase PDE4B1: • Source: Human recombinant insect Sf9 cells • Substrate: 0.10 μM FAM-cAMP • Vehicle: 1.00% DMSO • Significance Crit.: ≥50% of max stimulation or inhibition • Incubation Buffer: 10 mM Tris-HCl, pH 7.2, 10 mM MgCl2, 0.05% NaN3, 0.1% phosphate-free BSA • Quantitation Method: Quantitation of Fluorescein-AMP-IMAP • Pre-Incub. Time/Temp: 15 minutes @25° C. • Incubation Time/Temp: 30 minutes @25° C.
as §5, with “W.H.,” for “W. H.,”

Assay [4] addresses T4, Phosphodiesterase PDE5A (Homo sapiens, UniProt O76074).
T4 construct: host or cells: insect Sf9 cells
Description: Phosphodiesterase PDE5A enzyme assay. The settings on record: N=2, Example 3.
Text: as §1, §2, §3

Assay [5] has as its target T5, Phosphodiesterase PDE8A1 (Homo sapiens, UniProt O60658).
T5 construct: host or cells: insect Sf9 cells
In words: Phosphodiesterase PDE8A1 enzyme assay. The settings on record: N=2, Example 3.
Text: as §1
as §7, with “PDE4A1A; Phosphodiesterase PDE4B1; Phosphodiesterase PDE10A2; Phosphodiesterase PDE11A4; Phosphodiesterase PDE2A; Phosphodiesterase PDE3A; Phosphodiesterase PDE7A; Phosphodiesterase PDE7B; and Phosphodiesterase PDE8A1:” for “PDE4A1A:”
IC50 values are determined by a non-linear, least squares regression analysis using MathIQ™ (ID Business Solutions Ltd., UK). […]

Assay [6] deals with T6, Phosphodiesterase PDE9A2 (Homo sapiens, UniProt O76083).
T6 construct: host or cells: insect Sf9 cells
T6 sequence (O76083 1-533 isoform O76083-2): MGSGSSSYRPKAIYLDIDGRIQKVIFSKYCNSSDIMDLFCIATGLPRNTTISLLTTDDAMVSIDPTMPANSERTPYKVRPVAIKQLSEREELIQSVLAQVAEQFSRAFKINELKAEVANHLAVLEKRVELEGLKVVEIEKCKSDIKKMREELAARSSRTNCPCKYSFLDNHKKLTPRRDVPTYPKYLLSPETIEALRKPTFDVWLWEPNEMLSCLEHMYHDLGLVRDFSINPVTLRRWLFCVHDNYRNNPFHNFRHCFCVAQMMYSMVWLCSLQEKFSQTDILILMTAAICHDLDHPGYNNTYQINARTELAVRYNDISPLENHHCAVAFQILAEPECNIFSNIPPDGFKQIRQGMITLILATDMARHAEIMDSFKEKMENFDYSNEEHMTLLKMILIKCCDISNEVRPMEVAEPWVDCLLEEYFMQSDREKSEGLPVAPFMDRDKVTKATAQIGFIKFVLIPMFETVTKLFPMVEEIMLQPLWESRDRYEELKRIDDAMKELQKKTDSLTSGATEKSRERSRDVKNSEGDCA
In words: Phosphodiesterase PDE9A2 enzyme assay. The settings on record: N=2, Example 3.
Text: as §1, §2, §3

T1 sequence (P54750 whole entry): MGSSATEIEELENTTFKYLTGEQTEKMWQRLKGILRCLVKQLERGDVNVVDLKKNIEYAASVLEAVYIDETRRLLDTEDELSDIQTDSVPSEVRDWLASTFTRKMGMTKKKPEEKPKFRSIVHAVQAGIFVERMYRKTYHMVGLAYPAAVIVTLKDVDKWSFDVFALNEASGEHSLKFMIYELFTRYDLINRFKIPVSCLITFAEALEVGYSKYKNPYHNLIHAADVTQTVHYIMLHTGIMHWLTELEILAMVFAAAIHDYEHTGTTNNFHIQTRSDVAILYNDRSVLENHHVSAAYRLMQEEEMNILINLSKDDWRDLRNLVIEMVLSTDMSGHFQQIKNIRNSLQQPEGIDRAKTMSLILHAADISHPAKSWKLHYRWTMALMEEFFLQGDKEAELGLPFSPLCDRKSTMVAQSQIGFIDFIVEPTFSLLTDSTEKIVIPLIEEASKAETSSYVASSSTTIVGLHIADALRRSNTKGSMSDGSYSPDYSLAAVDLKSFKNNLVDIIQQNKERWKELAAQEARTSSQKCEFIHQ
T5 sequence (O60658 whole entry): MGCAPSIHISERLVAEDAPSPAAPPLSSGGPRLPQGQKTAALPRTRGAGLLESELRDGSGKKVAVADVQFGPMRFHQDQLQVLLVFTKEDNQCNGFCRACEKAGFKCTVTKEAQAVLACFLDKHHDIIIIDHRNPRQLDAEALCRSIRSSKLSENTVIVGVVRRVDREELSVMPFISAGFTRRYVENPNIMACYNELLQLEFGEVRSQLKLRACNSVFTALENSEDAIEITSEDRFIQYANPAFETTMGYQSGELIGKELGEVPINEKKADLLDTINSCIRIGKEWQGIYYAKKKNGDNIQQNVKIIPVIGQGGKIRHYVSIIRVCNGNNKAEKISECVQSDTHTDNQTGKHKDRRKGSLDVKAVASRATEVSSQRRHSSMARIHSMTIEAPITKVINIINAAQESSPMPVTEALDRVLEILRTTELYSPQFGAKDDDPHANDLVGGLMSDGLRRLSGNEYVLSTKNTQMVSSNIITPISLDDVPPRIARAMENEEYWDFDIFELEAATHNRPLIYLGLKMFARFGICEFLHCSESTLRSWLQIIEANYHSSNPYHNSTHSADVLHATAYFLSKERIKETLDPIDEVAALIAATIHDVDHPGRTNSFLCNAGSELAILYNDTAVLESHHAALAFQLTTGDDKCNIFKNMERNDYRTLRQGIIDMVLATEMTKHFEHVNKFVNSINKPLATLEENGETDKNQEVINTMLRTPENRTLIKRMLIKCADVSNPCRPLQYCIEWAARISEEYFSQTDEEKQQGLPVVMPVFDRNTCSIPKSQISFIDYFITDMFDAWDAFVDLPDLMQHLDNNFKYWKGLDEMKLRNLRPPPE

Turning to `CNc1nc(Nc2ccccc2)nc(OCC(F)(F)C(F)F)n1` [compound of Formula (I), N^2-methyl-N^4-phenyl-6-(2,2,3,3-tetrafluoropropoxy)-1,3,5-triazine-2,4-diamine], the inhibition – broadly, the relative decrease from the control value, in per cent – at 10 µM in assay [1] is -8%; in assay [2] (N=2, Example 3) it was 99%; in assay [2] (N=2, Example 4), 96%; in assay [3] (N=2, Example 3) it was 96%; in assay [3] (N=2, Example 4), 94%; in assay [4] it was 27%. The inhibition at 10 µM in assay [5] is 0%; in assay [6], -2%. Moreover, the inhibition at 0.01 µM in assay [2] (10 nM, N=2, Example 4) came to 23%; in assay [3] (10 nM, N=2, Example 4) it was 17%. For the same compound, the inhibition at 0.03 µM in assay [2] (0.03 μM, N=2, Example 4) came out at 37%; in assay [3] (0.03 μM, N=2, Example 4), 34%. In addition, the inhibition at 0.1 µM in assay [2] (0.1 μM, N=2, Example 4) worked out at 58%; in assay [3] (0.1 μM, N=2, Example 4), 49%. Further, the inhibition at 0.3 µM is 75% in assay [2] (0.3 μM, N=2, Example 4) and 70% in assay [3] (0.3 μM, N=2, Example 4). Besides, the inhibition at 1 µM in assay [2] (1 μM, N=2, Example 4) came out at 87%; in assay [3] (1 μM, N=2, Example 4) it was 83%. Also, the inhibition at 3 µM in assay [2] (3 μM, N=2, Example 4) was found to be 93%; in assay [3] (3 μM, N=2, Example 4) it was 91%. The concentration for half-maximal inhibition (IC50) – broadly, the midpoint of a concentration-inhibition curve – in assay [2] (Example 4) was determined as 63 nM; in assay [3] (Example 4), 94 nM.

Values taken from US12622915B2, “Methods of treating PDE IV-mediated diseases or conditions” (Vanda Pharmaceuticals Inc., priority 2020, dated 2026).
